Patent US20130109682A1, “CYCLIC ETHER COMPOUNDS USEFUL AS KINASE INHIBITORS” (NOVARTIS AG, priority 2010, published 2013)
pEC50, pIC50: −log10 of the molar value.

What was measured:
[1] = tested on: KMS11 (human myeloma cell line); assay: Cell proliferation assay (CellTiter-Glo), KMS11; assay type: cell-based; settings: Homo sapiens, KMS-11; KMS11-Luc cells
Procedure, shortened: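 EC50 derived from CellTiter-Glo luminescence after 3-day exposure at 37° C. Compound was diluted to 2× in medium and added to an equal volume of cells. KMS11 myeloma cells were plated on assay day at 2000/well in IMDM with 10% FBS and sodium pyruvate.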

PIM3 = PIM3 (Homo sapiens, UniProt Q86V86); assay: KinaseGlo Pim3 ATP depletion assay; assay type: biochemical
Procedure, shortened: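 Residual ATP was detected by luciferase luminescence once about half had been consumed. The reaction contained 5 nM enzyme, 100 μM BAD peptide (RSRHSSYPAGT) and 40 μM ATP in 50 mM HEPES pH 7.5, 5 mM MgCl2, 1 mM DTT and 0.05% BSA with 2.5% DMSO. Compound and enzyme/peptide were premixed 15 min before ATP.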

PIM1 = PIM1 (Homo sapiens, UniProt P11309); assay: KinaseGlo Pim1 ATP depletion assay; assay type: biochemical
Procedure, shortened: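 IC50 is derived from residual ATP measured by KinaseGlo Plus luminescence once about half the ATP was consumed. Final conditions were 20 μM ATP, 40 μM BAD peptide and 2.5 nM kinase in HEPES pH 7.5 buffer with MgCl2, DTT and BSA, plus 2.5% DMSO. Compound and enzyme were premixed 15 min before ATP addition.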

GSK3β = GSK3β (Homo sapiens, UniProt P49841); assay: GSK3β ATP depletion assay; assay type: biochemical; settings: read-out: GSK3b IC50
Procedure, shortened: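 Kinase activity is read as ATP consumption: luciferase luminescence reports the ATP remaining once roughly half of the 2 μM ATP is used. Reaction mix: 5 nM GSK3β, 10 μM b-CREB peptide, 50 mM Tris pH 7.5, 15 mM MgCl2, 1 mM DTT, 0.1% BSA, 2.5% DMSO. Enzyme and peptide are preincubated 15 min before ATP is added.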

PIM2 = PIM2 (Homo sapiens, UniProt Q9P1W9); assay: KinaseGlo Pim2 ATP depletion assay; assay type: biochemical
Procedure, shortened: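 Compound sat 15 min with enzyme and BAD peptide before ATP was added; final levels 5 nM PIM2, 10 μM peptide, 4 μM ATP, 2.5% DMSO, pH 7.5 HEPES buffer with MgCl2, DTT, BSA. Stopped near 50% ATP consumption; remaining ATP measured by luciferase luminescence.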

Sequence of PIM1 (P11309 whole entry): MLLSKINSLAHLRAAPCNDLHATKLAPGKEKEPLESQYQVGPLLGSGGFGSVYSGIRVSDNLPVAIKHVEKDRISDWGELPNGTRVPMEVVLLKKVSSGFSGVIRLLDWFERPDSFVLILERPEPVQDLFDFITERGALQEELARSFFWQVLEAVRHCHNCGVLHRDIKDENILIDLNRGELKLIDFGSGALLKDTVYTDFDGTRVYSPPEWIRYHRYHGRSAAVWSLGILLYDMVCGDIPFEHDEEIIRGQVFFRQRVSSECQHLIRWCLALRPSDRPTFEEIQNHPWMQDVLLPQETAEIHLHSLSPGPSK
Sequence of PIM2 (Q9P1W9 whole entry): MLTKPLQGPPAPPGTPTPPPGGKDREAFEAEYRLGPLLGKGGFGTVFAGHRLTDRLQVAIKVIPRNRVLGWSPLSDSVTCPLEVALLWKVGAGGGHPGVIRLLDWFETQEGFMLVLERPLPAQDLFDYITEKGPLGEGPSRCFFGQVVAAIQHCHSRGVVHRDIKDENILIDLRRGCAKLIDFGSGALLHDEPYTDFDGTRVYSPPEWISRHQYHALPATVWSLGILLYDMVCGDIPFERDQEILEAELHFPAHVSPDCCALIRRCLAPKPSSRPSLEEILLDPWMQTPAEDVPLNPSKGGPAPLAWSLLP
Sequence of GSK3β (P49841 whole entry, species assumed): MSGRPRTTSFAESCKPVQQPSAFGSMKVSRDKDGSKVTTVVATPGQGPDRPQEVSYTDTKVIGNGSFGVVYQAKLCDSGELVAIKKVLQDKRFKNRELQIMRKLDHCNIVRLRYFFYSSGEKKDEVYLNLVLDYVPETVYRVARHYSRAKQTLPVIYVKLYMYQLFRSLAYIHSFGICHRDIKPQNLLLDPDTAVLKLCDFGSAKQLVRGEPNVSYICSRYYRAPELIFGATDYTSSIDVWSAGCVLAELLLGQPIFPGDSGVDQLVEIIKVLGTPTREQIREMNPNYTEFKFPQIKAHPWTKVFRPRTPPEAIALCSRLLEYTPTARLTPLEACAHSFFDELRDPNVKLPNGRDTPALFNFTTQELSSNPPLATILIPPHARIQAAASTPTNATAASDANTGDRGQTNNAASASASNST

| Compound | pEC50 [1] | pIC50 (PIM3) | pIC50 (PIM1) | pIC50 (GSK3β) | pIC50 (PIM2) |
| --- | --- | --- | --- | --- | --- |
| CC1(C)O[C@@H](c2ccncc2NC(=O)c2csc(-c3c(F)cccc3F)n2)C[C@H](O)[C@@H]1O [Example 88, 2-(2,6-difluorophenyl)-N-(4-((2R,4S,5S)-4,5-dihydroxy-6,6-dimethyltetrahydro-2H-pyran-2-yl)pyridin-3-yl)thiazole-4-carboxamide] | 5.01 | 8.30 | 9.00 | 8.00 | 7.10 |
| CC1(C)O[C@@H](c2ccncc2NC(=O)c2ccc(F)c(-c3c(F)cccc3F)n2)C[C@H](O)[C@@H]1O [Example 89, 6-(2,6-difluorophenyl)-N-(4-((2R,4S,5S)-4,5-dihydroxy-6,6-dimethyltetrahydro-2H-pyran-2-yl)pyridin-3-yl)-5-fluoropicolinamide] | 5.62 | 8.70 | 9.00 | 7.06 | 8.22 |
| C[C@H]1O[C@@H](c2ccncc2NC(=O)c2ccc(F)c(-c3ccccc3F)n2)C[C@@H](O)[C@]1(C)O [Example 93, N-(4-((2R,4R,5S,6R)-4,5-dihydroxy-5,6-dimethyltetrahydro-2H-pyran-2-yl)pyridin-3-yl)-5-fluoro-6-(2-fluorophenyl)picolinamide] | < 5.00 | 8.30 | 9.00 | 6.93 | 7.23 |
| O=C(Nc1cnccc1[C@@H]1OCC[C@H](CO)O1)c1ccc(F)c(-c2c(F)cccc2F)n1 [Example 100, 6-(2,6-difluorophenyl)-5-fluoro-N-(4-((2R,4R)-4-(hydroxymethyl)-1,3-dioxan-2-yl)pyridin-3-yl)picolinamide] | < 5.00 | 7.38 | 8.00 | 5.61 | 6.10 |
| O=C(Nc1cnccc1[C@H]1OCC[C@@H](CO)O1)c1csc(-c2c(F)cccc2F)n1 [Example 102, 2-(2,6-difluorophenyl)-N-(4-((2S,4S)-4-(hydroxymethyl)-1,3-dioxan-2-yl)pyridin-3-yl)thiazole-4-carboxamide] | < 5.00 | 6.99 | 7.55 | 5.70 | 5.54 |
| CC(C)NC(=O)c1ccc(F)c(-c2cccc(C(=O)Nc3cnccc3[C@H]3C[C@@H](O)[C@](C)(O)[C@@H](C)O3)n2)c1 [Example 106, N-(4-((2R,4R,5S,6R)-4,5-dihydroxy-5,6-dimethyltetrahydro-2H-pyran-2-yl)pyridin-3-yl)-6-(2-fluoro-5-(isopropylcarbamoyl)phenyl)picolinamide] | 5.04 | 7.82 | 8.15 | 5.45 | 7.11 |
| C[C@H]1O[C@@H](c2ccncc2NC(=O)c2ccc(F)c(-c3c(F)cccc3F)n2)C[C@H](O)[C@@H]1O [Example 108, 6-(2,6-difluorophenyl)-N-(4-((2R,4S,5S,6R)-4,5-dihydroxy-6-methyltetrahydro-2H-pyran-2-yl)pyridin-3-yl)-5-fluoropicolinamide] | 5.38 | 8.30 | 9.00 | 6.46 | 7.82 |
| C[C@@H]1O[C@H](c2ccncc2NC(=O)c2csc(-c3c(F)cccc3F)n2)C[C@H](N)[C@H]1O [Example 113, N-(4-((2S,4S,5R,6S)-4-amino-5-hydroxy-6-methyltetrahydro-2H-pyran-2-yl)pyridin-3-yl)-2-(2,6-difluorophenyl)thiazole-4-carboxamide] | < 5.00 | 7.96 | 8.30 | 7.19 | 6.85 |
| C[C@H]1O[C@@H](c2ccncc2NC(=O)c2csc(-c3c(F)cccc3F)n2)C[C@@H](N)[C@@H]1O [Example 114, N-(4-((2R,4R,5S,6R)-4-amino-5-hydroxy-6-methyltetrahydro-2H-pyran-2-yl)pyridin-3-yl)-2-(2,6-difluorophenyl)thiazole-4-carboxamide] | 5.82 | 7.85 | 8.40 | 6.19 | 6.84 |
| C[C@H]1O[C@@H](c2ccncc2NC(=O)c2ccc(F)c(-c3c(F)cccc3F)n2)C[C@@H](N)[C@@H]1O [Example 116, N-(4-((2R,4R,5S,6R)-4-amino-5-hydroxy-6-methyltetrahydro-2H-pyran-2-yl)pyridin-3-yl)-6-(2,6-difluorophenyl)-5-fluoropicolinamide] | 5.72 | 8.15 | 8.70 | 5.51 | 7.64 |
| O=C(Nc1cnccc1C1OCCCO1)c1csc(-c2c(F)cccc2F)n1 [Example 117, N-(4-(1,3-dioxan-2-yl)pyridin-3-yl)-2-(2,6-difluorophenyl)thiazole-4-carboxamide] | 5.02 | 7.40 | 8.10 | 5.56 | 5.61 |

Further lines, results first:

| pEC50 [1] | pIC50 (PIM3) | pIC50 (PIM1) | pIC50 (GSK3β) | pIC50 (PIM2) | Compound |
| --- | --- | --- | --- | --- | --- |
| 5.40 | 7.51 | 8.30 | 7.34 | 6.30 | CC1(C)O[C@H](c2ccncc2NC(=O)c2csc(-c3c(F)cccc3F)n2)C[C@@H](O)[C@H]1O [Example 90, 2-(2,6-difluorophenyl)-N-(4-((2S,4R,5R)-4,5-dihydroxy-6,6-dimethyltetrahydro-2H-pyran-2-yl)pyridin-3-yl)thiazole-4-carboxamide] |
| 5.15 | 7.89 | 8.52 | 6.77 | 7.33 | CC1(C)O[C@H](c2ccncc2NC(=O)c2ccc(F)c(-c3c(F)cccc3F)n2)C[C@@H](O)[C@H]1O [Example 91, 6-(2,6-difluorophenyl)-N-(4-((2S,4R,5R)-4,5-dihydroxy-6,6-dimethyltetrahydro-2H-pyran-2-yl)pyridin-3-yl)-5-fluoropicolinamide] |
| < 5.00 | 8.70 | 9.00 | 6.90 | 7.80 | C[C@H]1O[C@@H](c2ccncc2NC(=O)c2cccc(-c3ccccc3F)n2)C[C@@H](O)[C@]1(C)O [Example 92, N-(4-((2R,4R,5S,6R)-4,5-dihydroxy-5,6-dimethyltetrahydro-2H-pyran-2-yl)pyridin-3-yl)-6-(2-fluorophenyl)picolinamide] |
| < 5.00 | 7.12 | 7.85 | 5.50 | 5.47 | O=C(Nc1cnccc1[C@@H]1OCC[C@H](CO)O1)c1csc(-c2c(F)cccc2F)n1 [Example 99, 2-(2,6-difluorophenyl)-N-(4-((2R,4R)-4-(hydroxymethyl)-1,3-dioxan-2-yl)pyridin-3-yl)thiazole-4-carboxamide] |
| < 5.00 | 7.17 | 7.92 | 5.59 | 5.87 | O=C(Nc1cnccc1[C@H]1OC[C@H](CO)O1)c1ccc(F)c(-c2c(F)cccc2F)n1 [Example 101, 6-(2,6-difluorophenyl)-5-fluoro-N-(4-((2S,4S)-4-(hydroxymethyl)-1,3-dioxolan-2-yl)pyridin-3-yl)picolinamide] |
| < 5.00 | 7.57 | 7.96 | 5.62 | 6.30 | O=C(Nc1cnccc1[C@H]1OCC[C@@H](CO)O1)c1ccc(F)c(-c2c(F)cccc2F)n1 [Example 103, 6-(2,6-difluorophenyl)-5-fluoro-N-(4-((2S,4S)-4-(hydroxymethyl)-1,3-dioxan-2-yl)pyridin-3-yl)picolinamide] |
| 5.33 | 8.22 | 9.00 | 5.93 | 7.30 | CC(C)NC(=O)c1ccc(F)c(-c2nc(C(=O)Nc3cnccc3[C@H]3C[C@@H](O)[C@](C)(O)[C@@H](C)O3)ccc2F)c1 [Example 105, N-(4-((2R,4R,5S,6R)-4,5-dihydroxy-5,6-dimethyltetrahydro-2H-pyran-2-yl)pyridin-3-yl)-5-fluoro-6-(2-fluoro-5-(isopropylcarbamoyl)phenyl)picolinamide] |
| 5.23 | 8.40 | 8.70 | 6.71 | 7.70 | C[C@@H]1O[C@H](c2ccncc2NC(=O)c2ccc(F)c(-c3c(F)cccc3F)n2)C[C@@H](O)[C@H]1O [Example 107, 6-(2,6-difluorophenyl)-N-(4-((2S,4R,5R,6S)-4,5-dihydroxy-6-methyltetrahydro-2H-pyran-2-yl)pyridin-3-yl)-5-fluoropicolinamide] |
| < 5.00 | 7.77 | 8.40 | 5.45 | 6.44 | O=C(Nc1cnccc1C1OCCCO1)c1ccc(F)c(-c2c(F)cccc2F)n1 [Example 118, N-(4-(1,3-dioxan-2-yl)pyridin-3-yl)-6-(2,6-difluorophenyl)-5-fluoropicolinamide] |
